How the values were obtained:
[1] = Retardation factor of the compound using 25%NH3/MeOH/DCM/PE at ratio of 45:225:600:90 as solvent system by thin layer chromatography; format: physicochemical
[2] = target: T1, Sodium- and chloride-dependent GABA transporter 1 (Mus musculus, UniProt P31648); assay: Inhibition of mouse GAT1 expressed in HEK293 cells assessed as decrease in [3H]GABA uptake; format: cell-based
GABA transporter 2 = target: T2, GABA transporter 2 (Mus musculus, UniProt P31651); assay: Inhibition of mouse GAT2 expressed in HEK293 cells assessed as decrease in [3H]GABA uptake; format: cell-based
T2 sequence (P31651 whole entry): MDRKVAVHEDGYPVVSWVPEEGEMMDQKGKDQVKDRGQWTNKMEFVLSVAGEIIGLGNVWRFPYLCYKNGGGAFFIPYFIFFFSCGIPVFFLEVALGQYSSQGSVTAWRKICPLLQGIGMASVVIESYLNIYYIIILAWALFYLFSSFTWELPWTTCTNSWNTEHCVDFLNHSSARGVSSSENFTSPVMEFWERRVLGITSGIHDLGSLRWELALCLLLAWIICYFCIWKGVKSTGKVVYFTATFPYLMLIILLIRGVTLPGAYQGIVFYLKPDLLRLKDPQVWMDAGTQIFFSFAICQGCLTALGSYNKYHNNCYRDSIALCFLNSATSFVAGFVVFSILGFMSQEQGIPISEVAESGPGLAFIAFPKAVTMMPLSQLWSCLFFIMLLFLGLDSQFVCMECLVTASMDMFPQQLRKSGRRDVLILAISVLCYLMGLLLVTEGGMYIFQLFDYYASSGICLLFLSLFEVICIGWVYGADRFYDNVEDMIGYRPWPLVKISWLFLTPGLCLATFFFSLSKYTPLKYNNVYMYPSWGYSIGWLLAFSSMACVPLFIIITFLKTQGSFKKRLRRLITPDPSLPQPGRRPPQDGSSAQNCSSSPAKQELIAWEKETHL

GABA transporter 3 = target: T3, GABA transporter 3 (Mus musculus, UniProt P31649); assay: Inhibition of mouse GAT3 expressed in HEK293 cells assessed as decrease in [3H]GABA uptake; format: cell-based
T3 sequence (P31649 whole entry): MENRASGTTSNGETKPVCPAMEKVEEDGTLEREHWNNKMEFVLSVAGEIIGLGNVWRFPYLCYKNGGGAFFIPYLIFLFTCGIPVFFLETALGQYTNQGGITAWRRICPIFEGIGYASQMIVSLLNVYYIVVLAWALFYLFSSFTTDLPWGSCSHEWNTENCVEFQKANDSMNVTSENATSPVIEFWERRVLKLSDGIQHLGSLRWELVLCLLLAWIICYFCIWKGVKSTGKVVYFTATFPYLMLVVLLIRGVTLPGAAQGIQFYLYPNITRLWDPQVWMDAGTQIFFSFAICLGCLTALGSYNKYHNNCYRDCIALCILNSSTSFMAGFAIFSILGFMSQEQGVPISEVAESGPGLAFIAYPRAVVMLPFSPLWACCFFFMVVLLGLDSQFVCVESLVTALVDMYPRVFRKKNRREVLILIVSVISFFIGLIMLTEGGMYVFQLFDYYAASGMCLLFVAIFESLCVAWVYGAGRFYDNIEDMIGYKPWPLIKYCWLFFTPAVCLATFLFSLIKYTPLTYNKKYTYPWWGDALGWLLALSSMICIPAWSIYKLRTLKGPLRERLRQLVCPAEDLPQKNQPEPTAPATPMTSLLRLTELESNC

GABA transporter 4 = target: T4, GABA transporter 4 (Mus musculus, UniProt P31650); assay: Inhibition of mouse GAT4 expressed in HEK293 cells assessed as decrease in [3H]GABA uptake; format: cell-based
T4 sequence (P31650 whole entry): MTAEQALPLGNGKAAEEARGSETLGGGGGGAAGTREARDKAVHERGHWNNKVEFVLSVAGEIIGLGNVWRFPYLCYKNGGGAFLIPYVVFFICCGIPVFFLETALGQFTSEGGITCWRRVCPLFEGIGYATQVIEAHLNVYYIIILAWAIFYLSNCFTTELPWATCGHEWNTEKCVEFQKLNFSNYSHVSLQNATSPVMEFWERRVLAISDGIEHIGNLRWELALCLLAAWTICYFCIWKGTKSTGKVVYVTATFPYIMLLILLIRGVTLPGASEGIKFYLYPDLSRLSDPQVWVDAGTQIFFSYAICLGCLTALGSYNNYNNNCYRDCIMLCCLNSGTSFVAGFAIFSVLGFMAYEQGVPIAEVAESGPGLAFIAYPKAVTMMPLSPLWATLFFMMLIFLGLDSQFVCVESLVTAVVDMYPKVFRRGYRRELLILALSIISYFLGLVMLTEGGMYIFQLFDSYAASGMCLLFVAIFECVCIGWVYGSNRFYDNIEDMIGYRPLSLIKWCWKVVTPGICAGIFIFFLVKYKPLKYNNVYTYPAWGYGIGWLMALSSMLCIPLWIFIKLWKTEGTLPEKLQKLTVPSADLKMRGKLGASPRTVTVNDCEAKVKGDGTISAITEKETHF

[3] = target: T1, Sodium- and chloride-dependent GABA transporter 1; assay: Displacement of NO711 from mouse GAT1 expressed in HEK293 cells by LC-MS/MS analysis; format: cell-based
[4] = Retardation factor of the compound using hexane/ethanol/TEA at ratio of 7:2:1 as solvent system by thin layer chromatography; format: physicochemical
[5] = target: Sodium- and chloride-dependent GABA transporter 1 (Mus musculus) (UniProt P31648); assay: Displacement of NO711 from mouse GAT1 expressed in HEK293 cells assessed as NO711 binding at 100 uM by LC-MS/MS analysis; format: cell-based

SMILES | Rf [1] | IC50 [2] [µM] | IC50 (GABA transporter 2) [µM] | IC50 (GABA transporter 3) [µM] | IC50 (GABA transporter 4) [µM] | Ki [3] [µM] | Rf [4] | Activity [5] [%]
NCCC(C(=O)NCc1ccc(Cl)cc1)N1CCC(=C(c2ccccc2)c2ccccc2)CC1 (stereo not drawn) | 0.8 | 11 | 10.5 | 12.9 | 12 | 24 | – | –
NCCC(NCCC=C(c1ccccc1)c1ccccc1)C(=O)NCc1ccccc1 (stereo not drawn) | – | 30.9 | 7.94 | 33.1 | 25.7 | 17.4 | 0.16 | –
CN(CCC=C(c1ccccc1)c1ccccc1)C(CCN)C(=O)NCc1ccccc1Cl (stereo not drawn) | 0.76 | 12.9 | 6.46 | 10 | 9.12 | 11 | – | –
CN(CCC=C(c1ccccc1)c1ccccc1)C(CCN)C(=O)NCc1ccccc1 (stereo not drawn) | 0.74 | 18.6 | 12 | 24 | 15.8 | 12.6 | – | –
NCCC(C(=O)NCc1ccccc1)N1CCN(C(c2ccccc2)c2ccccc2)CC1 (stereo not drawn) | 0.15 | 44.7 | 38 | 26.9 | 58.9 | – | – | 83
NCCC(NCCC=C(c1ccccc1)c1ccccc1)C(=O)NCc1ccc(Cl)cc1 (stereo not drawn) | – | 16.6 | 9.55 | 17.8 | 11.7 | 16.2 | 0.14 | –
NCCC(C(=O)NCc1ccc(F)cc1)N1CCC(=C(c2ccccc2)c2ccccc2)CC1 (stereo not drawn) | 0.77 | 11 | 10.2 | 12.3 | 13.5 | 25.1 | – | –
Cc1ccc(CNC(=O)C(CCN)N2CCN(C(c3ccccc3)c3ccccc3)CC2)cc1 (stereo not drawn) | 0.18 | 28.2 | 30.2 | 18.2 | 23.4 | 63.1 | – | –
NCCC(C(=O)NCc1ccc(F)cc1)N1CCC(C(c2ccccc2)c2ccccc2)CC1 (stereo not drawn) | 0.9 | 15.8 | 9.33 | 21.4 | 8.51 | 33.9 | – | –
CN(CCCC(c1ccccc1)c1ccccc1)C(CCN)C(=O)NCc1ccc(Cl)cc1 (stereo not drawn) | – | 17.4 | 17.4 | 21.4 | 14.5 | 17.8 | 0.1 | –
NCCC(C(=O)NCc1ccc(F)cc1)N1CCN(C(c2ccccc2)c2ccccc2)CC1 (stereo not drawn) | 0.12 | 23.4 | 30.9 | 33.9 | 37.2 | 66.1 | – | –
CN(CCCC(c1ccccc1)c1ccccc1)C(CCN)C(=O)NCc1ccccc1Cl (stereo not drawn) | – | 12.6 | 7.76 | 19.1 | 11.5 | 21.4 | 0.15 | –
Cc1ccc(CNC(=O)C(CCN)N2CCC(C(c3ccccc3)c3ccccc3)CC2)cc1 (stereo not drawn) | 0.92 | 13.2 | 7.94 | 14.5 | 7.41 | 16.6 | – | –
Cc1ccc(CNC(=O)C(CCN)N(C)CCCC(c2ccccc2)c2ccccc2)cc1 (stereo not drawn) | – | 12.3 | 14.1 | 22.9 | 8.32 | 15.5 | 0.17 | –
NCCC(NCCC=C(c1ccccc1)c1ccccc1)C(=O)NCc1ccccc1Cl (stereo not drawn) | – | 15.8 | 6.92 | 24 | 10.2 | – | 0.15 | 53
Cc1ccc(CNC(=O)C(CCN)NCCC=C(c2ccccc2)c2ccccc2)cc1 (stereo not drawn) | – | 19.5 | 8.91 | 29.5 | 15.1 | 11 | 0.16 | –
NCCC(C(=O)NCc1ccccc1)N1CCC(=C(c2ccccc2)c2ccccc2)CC1 (stereo not drawn) | 0.74 | 11 | 15.5 | 13.8 | 12 | 16.6 | – | –
Cc1ccc(CNC(=O)C(CCN)N(C)CCC=C(c2ccccc2)c2ccccc2)cc1 (stereo not drawn) | 0.84 | 8.51 | 9.55 | 12 | 9.77 | 9.12 | – | –
CN(CCCC(c1ccccc1)c1ccccc1)C(CCN)C(=O)NCc1ccc(F)cc1 (stereo not drawn) | – | 16.6 | 11.5 | 26.9 | 13.5 | 21.4 | 0.22 | –
NCCC(C(=O)NCc1ccc(Cl)cc1)N1CCC(C(c2ccccc2)c2ccccc2)CC1 (stereo not drawn) | 0.77 | 11.2 | 9.77 | 9.55 | 10.2 | 30.2 | – | –
NCCC(C(=O)NCc1ccccc1Cl)N1CCC(=C(c2ccccc2)c2ccccc2)CC1 (stereo not drawn) | 0.78 | 13.5 | 10.2 | 15.5 | 11 | 10.5 | – | –
CN(CCC=C(c1ccccc1)c1ccccc1)C(CCN)C(=O)NCc1ccc(F)cc1 (stereo not drawn) | 0.79 | 13.8 | 12.9 | 11 | 12.6 | 15.8 | – | –
Cc1ccc(CNC(=O)C(CCN)N2CCC(=C(c3ccccc3)c3ccccc3)CC2)cc1 (stereo not drawn) | 0.73 | 11.2 | 5.89 | 16.2 | 11.5 | 29.5 | – | –
NCCC(C(=O)NCc1ccccc1Cl)N1CCC(C(c2ccccc2)c2ccccc2)CC1 (stereo not drawn) | 0.79 | 13.8 | 5.89 | 11 | 10.2 | 25.7 | – | –
CN(CCCC(c1ccccc1)c1ccccc1)C(CCN)C(=O)NCc1ccccc1 (stereo not drawn) | – | 22.4 | 9.55 | 29.5 | 25.7 | 30.9 | 0.12 | –
NCCC(NCCC=C(c1ccccc1)c1ccccc1)C(=O)NCc1ccc(F)cc1 (stereo not drawn) | – | 27.5 | 12 | 24.5 | 31.6 | 22.9 | 0.15 | –
NCCC(C(=O)NCc1ccccc1)N1CCC(C(c2ccccc2)c2ccccc2)CC1 (stereo not drawn) | 0.92 | 19.5 | 12 | 20.4 | 20 | 32.4 | – | –
CN(CCC=C(c1ccccc1)c1ccccc1)C(CCN)C(=O)NCc1ccc(Cl)cc1 (stereo not drawn) | 0.73 | 12.9 | 9.77 | 11.2 | 12.6 | 11.2 | – | –

Source: ChEMBL document CHEMBL3286252, “Synthesis, biological evaluation and structure-activity relationship of new GABA uptake inhibitors, derivatives of 4-aminobutanamides” (Eur J Med Chem, 2014)
